Where “and” joins values, the source holds several entries; their conditions need not be identical. Identical values can stand only once.
What was measured:
[1] = system: disseminated L1210 murine leukemia; experiment: Antileukemic activity against disseminated L1210 leukemia in mice; format: in vivo
Source text: For these experiments Ia was solubilized in [Cremophor®/EtOH=6.5:3.5]/[normal saline]=20/80 v/v, while CPT-11 was solubilized in water.

[2] = system: intracranially implanted P388 tumor cells; experiment: Activity against intracranially transplanted P388 murine leukemia; format: in vivo, mice
Protocol: Brain tumors/metastases are generally unresponsive largely because cytotoxic drugs fail to cross the blood brain barrier. […] The compound was administered i.v. on days 1,5,9. Results reported in Tab.

[3] = Crossing of the blood brain barrier
[4] = CPT-11 alone 20 mg/kg/day iv days +1,2
[5] = Ia alone 2.9 mg/kg/day iv day +3
[6] = Ia alone 3.8 mg/kg/day iv day +3

Row | Compound | LTS (Long Term Survivors >60 days) [1, 4] | Tox (number of toxic deaths/number of mice) [1, 4] | ILS % (increase in life span) ([1]; CPT-11 alone 20 mg/kg/day iv days +1,2, L1210 10^5/mouse iv day 0) [%] | ILS % (increase in life span) [1, 5] [%] | LTS (Long Term Survivors >60 days) [1, 5] | Tox (number of toxic deaths/number of mice) [1, 5] | ILS % (increase in life span) [1, 6] [%] | LTS (Long Term Survivors >60 days) [1, 6] | Tox (number of toxic deaths/number of mice) [1, 6] | Tox (number of toxic deaths/number of mice) ([2]; Ia 2.1 mg/kg/day i.v. days 1, 5, 9) | ILS % (increase in life span) ([2]; Ia 2.1 mg/kg/day i.v. days 1, 5, 9, P388 10^4/mouse intracranially day 0) [%] | Tox (number of toxic deaths/number of mice) ([2]; Ia 2.7 mg/kg/day i.v. days 1, 5, 9) | ILS % (increase in life span) ([2]; Ia 2.7 mg/kg/day i.v. days 1, 5, 9 (optimal cumulative dose 8.1 mg/kg)) [%] | crossing of the blood brain barrier [3]
1 | CCc1c2c(nc3ccc(OC(=O)N4CCC(N5CCCCC5)CC4)cc13)-c1cc3c(c(=O)n1C2)COC(=O)[C@]3(O)CC [CPT-11, Irinotecan, reference compound] | 1/10 | without toxicity and 0/10 | 100 | – | – | – | – | – | – | – | – | – | – | –
2 | CC(=O)C1(O)Cc2c(O)c3c(c(O)c2C(OC2CC(N4CC4)C(OS(C)(=O)=O)C(C)O2)C1)C(=O)c1ccccc1C3=O (centres unmarked) [Ia, 4-demethoxy-3′-deamino-3′-aziridinyl-4′-methansulfonyl daunorubicin] | – | – | – | 92 | 0/10 | without toxicity and 0/10 | 108 | 0/10 | without toxicity and 0/10 | 0/20 | 44 | 1/20 | 46 | crosses the blood brain barrier

From patent US6403563B1, “Antitumor composition containing a synergistic combination of an anthracycline derivative with a camptothecin derivate” (Pharmacia & Upjohn S.p.A., priority 1998, dated 2002)
